Laboratory results published in patent US10238670B2, “9-aminomethyl minocycline compounds and methods of use thereof in urinary tract infection (UTI) treatment” (Paratek Pharmaceuticals, Inc., priority 2016, dated 2019).
Values after ≈ are worked out from the molar mass of the structure shown.

What was measured:
MS CoNS = experiment: In vitro MIC, 2010 surveillance isolates; assay type: cell-based, Coagulase-Negative Staphylococcus
MRSA = experiment: In vitro MIC, 2010 surveillance isolates; assay type: cell-based
E. coli ESBL+ = experiment: In vitro MIC, 2010 surveillance isolates; assay type: cell-based, Escherichia coli; conditions: for % R (resistance): CLSI breakpoints
E. faecalis VNS = experiment: In vitro MIC, 2010 surveillance isolates; assay type: cell-based; conditions: for % R (resistance): CLSI breakpoints
MSSA = experiment: In vitro MIC, 2010 surveillance isolates; assay type: cell-based
MR CoNS = experiment: In vitro MIC, 2010 surveillance isolates; assay type: cell-based, Coagulase-Negative Staphylococcus
K. pneumoniae ESBL− = experiment: In vitro MIC, 2010 surveillance isolates; assay type: cell-based, Klebsiella pneumoniae; conditions: for % R (resistance): CLSI breakpoints
E. coli ESBL− = experiment: In vitro MIC, 2010 surveillance isolates; assay type: cell-based, Escherichia coli; conditions: for % R (resistance): CLSI breakpoints
E. cloacae CeftazS = experiment: In vitro MIC, 2010 surveillance isolates; assay type: cell-based; conditions: for % R (resistance): CLSI breakpoints
Enterobacter spp = experiment: In vitro MIC, 2010 surveillance isolates; assay type: cell-based; conditions: for % R (resistance): CLSI breakpoints
E. cloacae CeftazR = experiment: In vitro MIC, 2010 surveillance isolates; assay type: cell-based; conditions: for % R (resistance): CLSI breakpoints
K. pneumoniae ESBL+ = experiment: In vitro MIC, 2010 surveillance isolates; assay type: cell-based, Klebsiella pneumoniae; conditions: for % R (resistance): CLSI breakpoints
K. oxytoca = experiment: In vitro MIC, 2010 surveillance isolates; assay type: cell-based; conditions: for % R (resistance): CLSI breakpoints
E. faecium VS = experiment: In vitro MIC, 2010 surveillance isolates; assay type: cell-based; conditions: for % R (resistance): CLSI breakpoints
E. faecalis VS = experiment: In vitro MIC, 2010 surveillance isolates; assay type: cell-based; conditions: for % R (resistance): CLSI breakpoints
Acinetobacter spp = experiment: In vitro MIC, 2010 surveillance isolates; assay type: cell-based; conditions: for range of MICs (N <10, shown instead of MIC90): N=9; for % R (resistance): CLSI breakpoints
E. faecium VNS = experiment: In vitro MIC, 2010 surveillance isolates; assay type: cell-based; conditions: for % R (resistance): CLSI breakpoints
human plasma protein = conditions: literature; cited from earlier work
A. baumanii = experiment: In vitro MIC, 2010 surveillance isolates; assay type: cell-based

C[C@H]1c2cccc(O)c2C(=O)C2=C(O)[C@]3(O)C(=O)C(C(N)=O)=C(O)[C@@H](N(C)C)[C@@H]3[C@@H](O)[C@@H]21 [Doxycycline]
% R (resistance) (MS CoNS; Asia/Pac, Eucast breakpoints): 5.6% | MIC90 (MS CoNS; Asia/Pac, N=18): 2 µg/mL (≈ 4.5 µM) | % R (resistance) (MS CoNS; Europe, Eucast breakpoints): 3.2% | MIC90 (MS CoNS; Europe, N=185): 1 µg/mL (≈ 2.25 µM) | % R (resistance) (MS CoNS; L. Amer, CLSI breakpoints): 0% | MIC90 (MS CoNS; L. Amer, N=67): 2 µg/mL (≈ 4.5 µM) | % R (resistance) (MS CoNS; N America, CLSI breakpoints): 0.5% | MIC90 (MS CoNS; N America, N=191): 1 µg/mL (≈ 2.25 µM) | % R (resistance) (MRSA; Asia/Pac, Eucast breakpoints): 48.6% | MIC90 (MRSA; Asia/Pac, N=428): 8 µg/mL (≈ 18 µM) | % R (resistance) (MRSA; Europe, Eucast breakpoints): 10.8% | MIC90 (MRSA; Europe, N=750): 4 µg/mL (≈ 9 µM) | % R (resistance) (MRSA; L. Amer, CLSI breakpoints): 0% | MIC90 (MRSA; L. Amer, N=506): 0.25 µg/mL (≈ 0.563 µM) | % R (resistance) (MRSA; N America, CLSI breakpoints): 0.1% | MIC90 (MRSA; N America, N=2508): 0.5 µg/mL (≈ 1.13 µM) | MIC90 (E. coli ESBL+; Asia/Pac, N=219): > 8 µg/mL | resistance rates for ESBL-producing clinical isolates (E. coli ESBL+; E. coli): 46% | MIC90 (E. coli ESBL+; Europe, N=274): > 8 µg/mL | % R (resistance) (E. coli ESBL+; L. Amer): 53% | MIC90 (E. coli ESBL+; L. Amer, N=168): > 8 µg/mL | % R (resistance) (E. coli ESBL+; N America): 42.5% | MIC90 (E. coli ESBL+; N America, N=134): > 8 µg/mL | range of MICs (N <10, shown instead of MIC90) (E. faecalis VNS; Asia/Pac, N=1): 8 | range of MICs (N <10, shown instead of MIC90) (E. faecalis VNS; Europe, N=8): 0.5-8 | % R (resistance) (E. faecalis VNS; L. Amer): 0% | range of MICs (N <10, shown instead of MIC90) (E. faecalis VNS; L. Amer, N=7): ≤0.06-4 | % R (resistance) (E. faecalis VNS; N America): 5.3% | MIC90 (E. faecalis VNS; N America, N=38): 8 µg/mL (≈ 18 µM) | % R (resistance) (MSSA; Asia/Pac, Eucast breakpoints): 1.7% | MIC90 (MSSA; Asia/Pac, N=641): 1 µg/mL (≈ 2.25 µM) | % R (resistance) (MSSA; Europe, Eucast breakpoints): 1.4% | MIC90 (MSSA; Europe, N=2109): 0.12 µg/mL (≈ 0.27 µM) | % R (resistance) (MSSA; L. Amer, CLSI breakpoints): 0% | MIC90 (MSSA; L. Amer, N=590): 0.5 µg/mL (≈ 1.13 µM) | % R (resistance) (MSSA; N America, CLSI breakpoints): ≤ 0.1% | MIC90 (MSSA; N America, N=2373): 0.12 µg/mL (≈ 0.27 µM) | % R (resistance) (MR CoNS; Asia/Pac, Eucast breakpoints): 20.8% | MIC90 (MR CoNS; Asia/Pac, N=77): 8 µg/mL (≈ 18 µM) | % R (resistance) (MR CoNS; Europe, Eucast breakpoints): 8.8% | MIC90 (MR CoNS; Europe, N=510): 2 µg/mL (≈ 4.5 µM) | % R (resistance) (MR CoNS; L. Amer, CLSI breakpoints): 0.3% | MIC90 (MR CoNS; L. Amer, N=301): 1 µg/mL (≈ 2.25 µM) | % R (resistance) (MR CoNS; N America, CLSI breakpoints): 1.3% | MIC90 (MR CoNS; N America, N=461): 2 µg/mL (≈ 4.5 µM) | MIC90 (K. pneumoniae ESBL−; Asia/Pac, N=189): > 8 µg/mL | MIC90 (K. pneumoniae ESBL−; Europe, N=361): > 8 µg/mL | % R (resistance) (K. pneumoniae ESBL−; L. Amer): 17.5% | MIC90 (K. pneumoniae ESBL−; L. Amer, N=160): > 8 µg/mL | % R (resistance) (K. pneumoniae ESBL−; N America): 13.7% | MIC90 (K. pneumoniae ESBL−; N America, N=671): > 8 µg/mL | MIC90 (E. coli ESBL−; Asia/Pac, N=282): > 8 µg/mL | MIC90 (E. coli ESBL−; Europe, N=1533): > 8 µg/mL | % R (resistance) (E. coli ESBL−; L. Amer): 31.4% | MIC90 (E. coli ESBL−; L. Amer, N=389): > 8 µg/mL | % R (resistance) (E. coli ESBL−; N America): 16% | MIC90 (E. coli ESBL−; N America, N=1172): > 8 µg/mL | MIC90 (E. cloacae CeftazS; Asia/Pac, N=100): > 8 µg/mL | MIC90 (E. cloacae CeftazS; Europe, N=183): 4 µg/mL (≈ 9 µM) | % R (resistance) (E. cloacae CeftazS; L. Amer): 12.3% | MIC90 (E. cloacae CeftazS; L. Amer, N=57): > 8 µg/mL | % R (resistance) (E. cloacae CeftazS; N America): 6.2% | MIC90 (E. cloacae CeftazS; N America, N=210): 4 µg/mL (≈ 9 µM) | MIC90 (Enterobacter spp; Asia/Pac, N=52): > 8 µg/mL | MIC90 (Enterobacter spp; Europe, N=82): 8 µg/mL (≈ 18 µM) | % R (resistance) (Enterobacter spp; L. Amer): 0% | MIC90 (Enterobacter spp; L. Amer, N=42): 4 µg/mL (≈ 9 µM) | % R (resistance) (Enterobacter spp; N America): 7.9% | MIC90 (Enterobacter spp; N America, N=101): 4 µg/mL (≈ 9 µM) | MIC90 (E. cloacae CeftazR; Asia/Pac, N=63): 8 µg/mL (≈ 18 µM) | MIC90 (E. cloacae CeftazR; Europe, N=72): > 8 µg/mL | % R (resistance) (E. cloacae CeftazR; L. Amer): 14.3% | MIC90 (E. cloacae CeftazR; L. Amer, N=42): > 8 µg/mL | % R (resistance) (E. cloacae CeftazR; N America): 28.6% | MIC90 (E. cloacae CeftazR; N America, N=77): > 8 µg/mL | MIC90 (K. pneumoniae ESBL+; Asia/Pac, N=124): > 8 µg/mL | MIC90 (K. pneumoniae ESBL+; Europe, N=151): > 8 µg/mL | % R (resistance) (K. pneumoniae ESBL+; L. Amer): 44% | MIC90 (K. pneumoniae ESBL+; L. Amer, N=209): > 8 µg/mL | % R (resistance) (K. pneumoniae ESBL+; N America): 43.5% | MIC90 (K. pneumoniae ESBL+; N America, N=108): > 8 µg/mL | MIC90 (K. oxytoca; Asia/Pac, N=17): 2 µg/mL (≈ 4.5 µM) | MIC90 (K. oxytoca; Europe, N=158): 2 µg/mL (≈ 4.5 µM) | % R (resistance) (K. oxytoca; L. Amer): 12% | MIC90 (K. oxytoca; L. Amer, N=25): > 8 µg/mL | % R (resistance) (K. oxytoca; N America): 2.3% | MIC90 (K. oxytoca; N America, N=177): 4 µg/mL (≈ 9 µM) | MIC90 (E. faecium VS; Asia/Pac, N=106): > 8 µg/mL | MIC90 (E. faecium VS; Europe, N=303): > 8 µg/mL | % R (resistance) (E. faecium VS; L. Amer): 21.6% | MIC90 (E. faecium VS; L. Amer, N=51): > 8 µg/mL | % R (resistance) (E. faecium VS; N America): 31.3% | MIC90 (E. faecium VS; N America, N=115): > 8 µg/mL | MIC90 (E. faecalis VS; Asia/Pac, N=214): > 8 µg/mL | MIC90 (E. faecalis VS; Europe, N=669): > 8 µg/mL | % R (resistance) (E. faecalis VS; L. Amer): 7.6% | MIC90 (E. faecalis VS; L. Amer, N=290): 8 µg/mL (≈ 18 µM) | % R (resistance) (E. faecalis VS; N America): 7.1% | MIC90 (E. faecalis VS; N America, N=863): 8 µg/mL (≈ 18 µM) | range of MICs (N <10, shown instead of MIC90) (Acinetobacter spp; Asia/Pac): ≤0.06-2 | MIC90 (Acinetobacter spp; Europe, N=43): > 8 µg/mL | % R (resistance) (Acinetobacter spp; L. Amer): 0% | range of MICs (N <10, shown instead of MIC90) (Acinetobacter spp; L. Amer): ≤0.06-2 | % R (resistance) (Acinetobacter spp; N America): 11.9% | MIC90 (Acinetobacter spp; N America, N=42): > 8 µg/mL | MIC90 (E. faecium VNS; Asia/Pac, N=24): > 8 µg/mL | MIC90 (E. faecium VNS; Europe, N=71): 8 µg/mL (≈ 18 µM) | % R (resistance) (E. faecium VNS; L. Amer): 7.3% | MIC90 (E. faecium VNS; L. Amer, N=41): 8 µg/mL (≈ 18 µM) | % R (resistance) (E. faecium VNS; N America): 33.1% | MIC90 (E. faecium VNS; N America, N=478): > 8 µg/mL | human plasma protein binding, Mean (human plasma protein): 82-93% | MIC90 (A. baumanii; Asia/Pac, N=275): > 8 µg/mL | MIC90 (A. baumanii; Europe, N=145): > 8 µg/mL | % R (resistance) (A. baumanii; L. Amer, CLSI breakpoints): 15.3% | MIC90 (A. baumanii; L. Amer, N=275): > 8 µg/mL | MIC90 (A. baumanii; N America, N=154): > 8 µg/mL
